Source: BindingDB's records for doi:10.1021/jm00069a017 (University of Minnesota, 1993)

Key:
[1] = Selective binding affinity against Opioid receptor delta 2, using [3H]DSLET as radioligand
[2] = Selective binding affinity against Opioid receptor delta 1, using [3H]DPDPE as radioligand

CN1CC[C@]23c4c5ccc(O)c4O[C@H]2C(=O)C2(Cc4ccccc4C2)C[C@@]3(O)[C@H]1C5 [Spiroindanyloxymorphone]
Ki [1]: 3.3 nM
Ki [2]: 1.4 nM
